# Measurements published in US12226400B2, “Neuroprotective disruption of Kv2.1/syntaxin interaction by small molecules” (UNIVERSITY OF PITTSBURGH-OF THE COMMONWEALTH SYSTEM OF …, priority 2018, dated 2025).
# Legend:
# [1] = tested on: rat primary culture cortical neurons; test: TBOA excitotoxicity assay (LDH release) in cortical neuron cultures; type: cell-based
# Protocol: All animal protocols described here and below were approved by the Institutional Animal Care and Use Committee of the University of Pittsburgh School of Medicine. Cortical neurons were prepared from embryonic day 16-17 rats of either sex. Pregnant donor rats (Charles River Laboratories) were killed by gradual CO2 inhalation, an American Veterinary Medical Association approved protocol (Leary et al., 2013). Cortices were dissociated with trypsin, and plated at 670,000 cells per well on poly-L-ornithine glass coverslips in six-well plates. Non-neuronal cell proliferation was inhibited with 1-2 μM cytosine arabinoside at 15 days in vitro (DIV). All cortical culture experiments shown here were performed on 18-25 DIV cultures.
# DL-threo-β-benzyloxaspartate (TBOA; Tocris Bioscience) excitotoxicity assays were performed on cortical culture coverslips transferred into 24-well plates containing 10 mM HEPES, 0.01% bovine serum albumin (BSA)-supplemented MEM without phenol red (MHB). […] Following this exposure, external medium was collected for LDH colorimetric measurements using a toxicity kit (Sigma-Aldrich), as previously described 12. Each experiment contained three replicates of four conditions (with/without TBOA, with/without treatment). Relative toxicity was quantified as the LDH ratio of TBOA-treated over vehicle control values within each experiment. […]
# NMDA receptors = test: Fura-2 ratiometric Ca2+ imaging during NMDA exposure; type: cell-based, rat; details: 10 μM cpd5, NMDA 30 μM with 10 μM glycine; ±SEM
# Protocol: Intracellular Ca^2+ measurements were performed on the same cortical culture preparations as above, but with 20 DIV cells plated on MatTek glass-bottom 35 mm culture dishes. At this developmental stage, neurons robustly express both GluN2A and GluN2B subunits of the NMDA receptor. Neurons were incubated with the fluorescent Ca^2+ indicator Fura-2 AM ester (5 μM; Invitrogen) with 0.02% Pluronic F-127 (Invitrogen) for 1 h at 37° C. Culture dishes were then mounted on an inverted microscope stage (Olympus) and continuously perfused with a 10 mM HEPES-buffered normal salt solution. Perfusion rate (5 ml/min) was controlled with a gravity flow and a rapid-switching local perfusion system (Warner Instruments). […] A ratio of fluorescence emission (F) at 510 nm in response to excitations at 340 and 380 nm was acquired at 1 Hz (Fambda DG-4 and 10-B SmartShutter, Sutter Instruments) via camera (ORCAER, Hamamatsu) and saved to a computer using HCImage (Hamamatsu). Baseline Ca^2+ signals were recorded for 2 min before the first application of NMDA (30 μM plus 10 μM glycine) with or without 10 μM cpd5 (Cat #MolPort-009-741-732, Molport). […] Peak increases in intracellular calcium concentration were measured by calculating F/Fo (F, peak fluorescence; Fo, average signal across 2 min baseline period). The area under the response for the first 15 min of NMDA application was also calculated.
# [2] = tested on: L5B corticocollicular neurons; test: Slice electrophysiology, intrinsic properties of L5B corticocollicular neurons; type: cell-based, mouse; details: 10 min incubation in 10 μM cpd5
# Protocol: Stereotaxic injections for electrophysiology. Male or female ICR mice P21-30 (Jackson Laboratory) were anesthetized with 3% isoflurane (1.5% maintenance) and placed on the stereotaxic frame (Kopf). Core body temperature was maintained at ˜37° C. with a heating pad and eyes were protected with ophthalmic ointment. Lidocaine (1%) was injected under the scalp and an incision was made into the skin at the midline to expose the skull. […] A volume of ˜0.12 μl fluorospheres was pressure injected (25 psi, 10 ms duration) from capillary pipettes (Drummond Scientific) with a Picospritzer (Parker-Hannifin). After injection, the pipette was held in the brain for 2 min before slowly withdrawing. The scalp of the mouse was closed with cyanoacrylate adhesive. Mice were injected with the non-steroidal anti-inflammatory drug carprofen at 5 mg/kg (Henry Schein Animal Health) for 24 hours prior to and 48 hours after surgery. Mice were monitored for signs of postoperative stress and pain.
# Slice electrophysiology. Slice electrophysiology experiments were performed in mice at least 2 days after fluorospheres injections. Following anesthesia with isoflurane, mice were immediately decapitated. Brains were rapidly removed and coronal slices (300 μm) containing the auditory cortex were prepared in a cutting solution at 1° C. using a Vibratome (VT1200 S; Leica). For evoked EPSC recordings, the cutting solution, pH 7.4, ˜300 mOsm, contained the following (in mM): 2.5 KCl, 1.25 NaH2PO4, 25 NaHCO3, 0.5 CaCl2, 7 MgCl2, 7 Glucose, 205 sucrose, 1.3 ascorbic acid, and 3 sodium pyruvate (bubbled with 95% O2/5% CO2). For evaluation of corticocollicular neuron electrical properties, the cutting solution, pH ˜7.4, contained the following (in mM): 135 NMDG, 1 KCl, 1.2 KH2PO4, 1.5 MgCl2, 1.5 CaCl2, 20 NaHCO3, 10 D-Glucose. The slices were then transferred and incubated at 34° C. for 30 min (bubbled with 95% O2/5% CO2) prior to recording. The incubating and recording solution contained the following (in mM): 125 NaCl, 2.5 KCl, 1.25 NaH2PO4, 25 NaHCO3, 2 CaCl2, 1 MgCl2, 10 D-Glucose, 1.3 ascorbic acid, and 3 sodium pyruvate (bubbled with 95% O2/5% CO2). Slices were stored at room temperature until the time of recording. The flow rate of the ACSF was ˜1.5 ml/min, and its temperature was maintained at 34° C. using an in-line heating system (Warner). Both slice electrophysiology experiments were carried out using MultiClamp-700B amplifier equipped with Digidata-1440A A/D converter and Clampex (Molecular Devices). Data were sampled at 10 kHz and Bessel filtered at 4 kHz. Pipette capacitance was compensated and series resistance for recordings was lower than 15 MΩ and measured throughout the experiments. Recordings were excluded from further analysis if the series resistance changed by more than 15% compared to the baseline period.
# All data for intrinsic properties were acquired and analyzed within the Ephus software package. Series resistance was determined in voltage-clamp mode (command potential set at −70 mV) by giving a −5 mV voltage step. […] The difference between baseline and steady-state hyperpolarized current (ΔI) was used to calculate Rinput using the following formula: Rinput=−5 mV/ΔI−Rseries. The average resting membrane potential (Vm) was calculated by holding the neuron in voltage-follower mode (current clamp, at I=0) ˜2 minutes after breaking in and averaging the membrane potential over the next 30 sec. Subthreshold and suprathreshold membrane responses in current clamp were elicited by injecting −200 to +400 pA in 50 pA increments (baseline Vm was maintained at −70 mV, by injecting the required current, if necessary). Sag was measured during the −200 pA current injection, using the formula, SAG=(Vmin−Vsteady-state)/Vsteady-state. The first resulting action potential (AP) at rheobase was analyzed for AP width. AP width was calculated as the full-width at the half-maximum amplitude of the AP. […]
smiles,measurement,setting,value
"COc1ccc(CNC(=O)Nc2cccc(-c3nc4ccccc4s3)c2)cc1OC [cpd5, 3-[3-(1,3-benzothiazol-2-yl)phenyl]-1-[(3,4-dimethoxyphenyl)methyl]urea]",TBOA toxicity (neuroprotection),"[1]; 10 μM Cpd5, pre-loading 1 hr and co-incubation, overnight TBOA 60 μM",significantly diminished TBOA toxicity
same,relative toxicity (LDH ratio of TBOA-treated over vehicle control),"[1]; 10 μM compound, 1 hr preincubation and coincubation, 75 μM TBOA, 24 hr, mean±SEM",1.84±0.42
same,"NMDA-induced Ca2+ response, AUC treated",NMDA receptors,104.67±1.98 % Control
same,"NMDA-induced Ca2+ response, F-peak treated",NMDA receptors,101.26±1.47 % Control
same,action potential threshold,[2],no significant effect
same,action potential width,[2],no significant effect
same,firing rate,[2],no significant effect
same,input resistance,[2],lack of significant effect
same,resting membrane potential,[2],lack of significant effect
same,sag ratio (V2/V1),[2],lack of significant effect
